Here are results for 2 compounds from article PMC6614406, “Phylogenetic and crystallographic analysis of Nostoc phycocyanin having blue-shifted spectral properties” (Scientific Reports, 2019).

As a reminder, the stoichiometry N is a count of units in the complex or per binding partner.

Experiment [1] concerns the target T1, Nostoc sp. R76DM phycocyanin (N-PC) (Nostoc, UniProt A0A5H1ZR40+A0A5H1ZR41).
T1 construct: native, purified from Nostoc sp; R76DM cells; (alpha3beta3)2 hexamer; subunits near 18 kDa on SDS-PAGE; chromophores covalently attached
In words: X-ray crystal structure ([…] Å). To be noted: covalent; native chromophore attached to alpha Cys84, beta Cys82 and beta Cys153; 18 PCB per hexamer. It counts as binding.

Experiment [2] has as its target Nostoc sp. R76DM phycocyanin αβ heterodimer (αβ monomer) (Nostoc sp. R76DM). Briefly: crystal structure; N-PC at 10 mg/mL, sitting drop vapor diffusion, 0.2 M sodium malonate, 20% (w/v) PEG 3350, 25 °C; space group P21, 2.35 Å; one (α3β3)2 hexamer in the asymmetric unit.

T1 sequence (A0A5H1ZR41 entry or part of it): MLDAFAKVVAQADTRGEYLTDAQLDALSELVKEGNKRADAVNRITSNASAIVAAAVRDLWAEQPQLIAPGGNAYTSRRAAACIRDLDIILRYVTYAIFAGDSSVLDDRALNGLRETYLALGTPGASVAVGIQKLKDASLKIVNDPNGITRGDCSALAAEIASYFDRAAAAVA
T1 sequence (A0A5H1ZR40 entry or part of it): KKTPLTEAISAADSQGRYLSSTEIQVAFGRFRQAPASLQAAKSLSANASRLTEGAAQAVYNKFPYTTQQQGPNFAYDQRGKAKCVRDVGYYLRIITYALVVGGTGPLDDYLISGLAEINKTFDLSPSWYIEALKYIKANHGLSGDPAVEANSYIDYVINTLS

Consider `C/C=C1/C(=C/c2[nH]c(/C=C3N=C(/C=C4\NC(=O)C(CC)=C4C)C(C)=C\3CCC(=O)O)c(CCC(=O)O)c2C)NC(=O)[C@@H]1C` [phycocyanobilin], for which the “X-ray crystal structure (2.35 Å)” value in experiment [1] is listed as “The N-PC contains three PCB chromophores; one is attached covalently with Cys84 of α-subunit”.
Take “Nostoc sp. R76DM phycocyanin αβ heterodimer (αβ monomer) (complex)”: the stoichiometry N in experiment [2] worked out at 6.
